Data from publication PMC11188305, “Reproductive and fetal toxicity studies of histamine H3 receptor antagonist DL76 used in mice to prevent maximal electroshock-induced seizure” (Frontiers in Pharmacology, 2024).

System: C57/B6 mouse embryos
Assay: Reproductive studies: maternal, fetal and gross/visceral malformation observations after treatment on GD-8 or GD-13
Type: in vivo
Conditions: for Placental weight, IUGR −1SD / Placental weight, IUGR −2SD: fraction (percentage); for Fetal weight, IUGR −1SD / Fetal weight, IUGR −2SD: fraction of fetuses (percentage); for Number of female embryos / Number of male embryos: number (percentage); for Exomphalos / Eye open / Kinky tail / Left/right kidney hypo/descended / Mandible hypoplasia / Maxilla hypoplasia / Microtia/low set microtia / Undescended testis: number of embryos (percentage); for Live fetus/litter / Resorption/litter: parentheses contain percentages
Method: Reproductive studies were conducted in adult female mice, averaging 30 gm in weight and 6 weeks in age ([Padmanabhan et al., 2006]; [Bastaki et al., 2018]). Following successful mating, indicated by vaginal plug observation, the plug-positive day was considered gestation day 0 (GD-0). DL76 was administered at various doses (7.5 mg/kg, 15 mg/kg, 30 mg/kg, and 60 mg/kg) through single i.p. injections and three 15 mg/kg injections in 1 day to mouse groups on GD-8 and GD-13 (Tables 1, 2). The control group was injected with normal saline. Appropriate formation of different organs occurs in specific periods of the development of the mouse. These two periods were selected because GD-8 is known to be a critical period for the induction of neural tube defects, craniofacial malformations, and the development of other organs, whereas on GD-13, the retina and other parts are being formed, and most other organs have been formed. The number of implantations, fetal deaths, and resorptions was recorded. Fetal and placental weights were documented separately. After blotting dry, the fetuses were weighed and fixed in 95% ethanol. The reproductive toxicological effects of DL76 were assessed by observing gross and visceral malformations, following [Sterz and Lehmann (1985)], [Abdulrazzaq et al. (1997)], [Padmanabhan et al. (2003)], and [Padmanabhan et al. (2006)].
Deformities of the embryos were identified according to a modified method of [Sterz and Lehmann (1985)], [Abdulrazzaq et al. (1997)], and [Bass et al. (2020)]. Accordingly, the embryos were removed from the 95% ethanol, and the lower part of the abdomen was cut using a razor blade. All organs were checked for abnormalities with a stereo dissecting microscope, and finally, the organs were removed by using forceps.
Statistical analyses employed SPSS 26.0 (IBM Middle East, Dubai, UAE). Data were presented as means ± SEM. […] Fetal abnormality data were presented as counts and percentages. Fisher’s exact test compared the percentages of abnormalities between the control group (saline) and the different dose groups. All tests were two-tailed, and significance was set at p < 0.05.

`CC(C)(C)c1ccc(OCCCN2CCCCC2)cc1` [DL76, 1-(3-(4-tert-butyl-phenoxy)propyl) piperidine] was tested, and the “Fetal weight/Litter (g) (Mean ± SD)” value (7.5 mg/kg i.p. on GD-8) was 1.143 ± 0.107 g, the Fetuses/litter (7.5 mg/kg i.p. on GD-8) was 7.714 ± 1.890 and the “Placental weight/Litter (g) (mean ± SD)” value (7.5 mg/kg i.p. on GD-8) was 0.109 ± 0.11 g. For the same compound, the “Placental weight, IUGR −1SD” value (7.5 mg/kg i.p. on GD-8) was 0, the “Placental weight, IUGR −2SD” value (7.5 mg/kg i.p. on GD-8) was 0 and the “Fetal weight, IUGR −1SD” value (7.5 mg/kg i.p. on GD-8) was 0. The “Fetal weight, IUGR −2SD” value (7.5 mg/kg i.p. on GD-8) was 0, the “Number of female embryos” value (7.5 mg/kg i.p. on GD-8) was 19 (43.2) and the “Number of male embryos” value (7.5 mg/kg i.p. on GD-8) was 25 (56.8). The Exomphalos (7.5 mg/kg i.p. on GD-8) was 0, the Eye open (7.5 mg/kg i.p. on GD-8) was 2 (4.5) and the Kinky tail (7.5 mg/kg i.p. on GD-8) was 0. The Left/right kidney hypo/descended (7.5 mg/kg i.p. on GD-8) was 1 (2.3), the Mandible hypoplasia (7.5 mg/kg i.p. on GD-8) was 3 (6.8) and the Maxilla hypoplasia (7.5 mg/kg i.p. on GD-8) was 3 (6.8). For the same compound, the Microtia/low set microtia (7.5 mg/kg i.p. on GD-8) was 2 (4.5), the Undescended testis (7.5 mg/kg i.p. on GD-8) was 2 (4.5) and the Live fetus/litter (7.5 mg/kg i.p. on GD-8) was 6.289 (81.48). For the same compound, the Resorption/litter (7.5 mg/kg i.p. on GD-8) was 1.429 (18.51), the “Fetal weight Litter (g) (Mean ± SD)” value (7.5 mg/kg i.p. on GD-13) was 1.018 ± 0.103 g and the Fetuses/litter (7.5 mg/kg i.p. on GD-13) was 8.000 ± 1.291. For the same compound, the “Placental weight/Litter (g) (mean ± SD)” value (7.5 mg/kg i.p. on GD-13) was 0.105 ± 0.011 g, the “Placental weight, IUGR −2SD” value (7.5 mg/kg i.p. on GD-13) was 0 and the “Fetal weight, IUGR −2SD” value (7.5 mg/kg i.p. on GD-13) was 0. For the same compound, the “Number of female embryos” value (7.5 mg/kg i.p. on GD-13) was 27 (54.0), the “Number of male embryos” value (7.5 mg/kg i.p. on GD-13) was 23 (46.0) and the Exomphalos (7.5 mg/kg i.p. on GD-13) was 0. For the same compound, the Eye open (7.5 mg/kg i.p. on GD-13) was 3 (6.0), the Kinky tail (7.5 mg/kg i.p. on GD-13) was 0 and the Left/right kidney hypo/descended (7.5 mg/kg i.p. on GD-13) was 2 (4.0). The Mandible hypoplasia (7.5 mg/kg i.p. on GD-13) was 4 (8.0), the Microtia/low set microtia (7.5 mg/kg i.p. on GD-13) was 2 (4.0) and the Undescended testis (7.5 mg/kg i.p. on GD-13) was 1 (2.0). For the same compound, the Maxilla hypoplasia (7.5 mg/kg i.p. on GD-13, * p < 0.05 vs control) was 4 (8.0)*, the Resorption/litter (7.5 mg/kg i.p. on GD-13) was 0.857 (10.71) and the “Fetal weight/Litter (g) (Mean ± SD)” value (15 mg/kg i.p. on GD-8) was 0.993 ± 0.106 g. The Fetuses/litter (15 mg/kg i.p. on GD-8) was 7.167 ± 2.317, the “Placental weight/Litter (g) (mean ± SD)” value (15 mg/kg i.p. on GD-8) was 0.105 ± 0.009 g and the “Placental weight, IUGR −1SD” value (15 mg/kg i.p. on GD-8) was 0. For the same compound, the “Placental weight, IUGR −2SD” value (15 mg/kg i.p. on GD-8) was 0, the “Fetal weight, IUGR −1SD” value (15 mg/kg i.p. on GD-8) was 0 and the “Number of female embryos” value (15 mg/kg i.p. on GD-8) was 20 (52.6). For the same compound, the “Number of male embryos” value (15 mg/kg i.p. on GD-8) was 18 (47.4), the Exomphalos (15 mg/kg i.p. on GD-8) was 1 (2.6) and the Eye open (15 mg/kg i.p. on GD-8) was 3 (7.9). The Kinky tail (15 mg/kg i.p. on GD-8) was 0, the Left/right kidney hypo/descended (15 mg/kg i.p. on GD-8) was 2 (5.3) and the Mandible hypoplasia (15 mg/kg i.p. on GD-8) was 3 (7.9). For the same compound, the Maxilla hypoplasia (15 mg/kg i.p. on GD-8) was 1 (2.6), the Microtia/low set microtia (15 mg/kg i.p. on GD-8) was 1 (2.6) and the Undescended testis (15 mg/kg i.p. on GD-8) was 0. For the same compound, the Live fetus/litter (15 mg/kg i.p. on GD-8) was 6.338 (88.37), the Resorption/litter (15 mg/kg i.p. on GD-8) was 0.833 (11.62) and the “Fetal weight Litter (g) (Mean ± SD)” value (15 mg/kg i.p. on GD-13) was 0.998 ± 0.063 g. For the same compound, the Fetuses/litter (15 mg/kg i.p. on GD-13) was 7.571 ± 1.272, the “Placental weight/Litter (g) (mean ± SD)” value (15 mg/kg i.p. on GD-13) was 0.113 ± 0.015 g and the “Placental weight, IUGR −2SD” value (15 mg/kg i.p. on GD-13) was 0. For the same compound, the “Fetal weight, IUGR −2SD” value (15 mg/kg i.p. on GD-13) was 0, the “Number of female embryos” value (15 mg/kg i.p. on GD-13) was 18 (45.0) and the “Number of male embryos” value (15 mg/kg i.p. on GD-13) was 22 (55.0). The Exomphalos (15 mg/kg i.p. on GD-13) was 0, the Eye open (15 mg/kg i.p. on GD-13) was 2 (5.0) and the Kinky tail (15 mg/kg i.p. on GD-13) was 0. For the same compound, the Left/right kidney hypo/descended (15 mg/kg i.p. on GD-13) was 1 (2.5), the Mandible hypoplasia (15 mg/kg i.p. on GD-13) was 4 (10.0) and the Maxilla hypoplasia (15 mg/kg i.p. on GD-13) was 3 (7.5). The Microtia/low set microtia (15 mg/kg i.p. on GD-13) was 2 (5.0), the Undescended testis (15 mg/kg i.p. on GD-13) was 1 (2.5) and the Live fetus/litter (15 mg/kg i.p. on GD-13) was 5.714 (75.47). For the same compound, the Resorption/litter (15 mg/kg i.p. on GD-13) was 1.857 (24.53), the “Fetal weight/Litter (g) (Mean ± SD)” value (30 mg/kg i.p. on GD-8) was 1.004 ± 0.047 g and the Fetuses/litter (30 mg/kg i.p. on GD-8) was 8.429 ± 0.787. For the same compound, the “Placental weight/Litter (g) (mean ± SD)” value (30 mg/kg i.p. on GD-8) was 0.097 ± 0.019 g, the “Fetal weight, IUGR −2SD” value (30 mg/kg i.p. on GD-8) was 0 and the “Number of female embryos” value (30 mg/kg i.p. on GD-8) was 27 (52.9). The “Number of male embryos” value (30 mg/kg i.p. on GD-8) was 24 (47.1), the Exomphalos (30 mg/kg i.p. on GD-8) was 1 (2.0) and the Eye open (30 mg/kg i.p. on GD-8) was 2 (3.9). For the same compound, the Kinky tail (30 mg/kg i.p. on GD-8) was 1 (2.0), the Mandible hypoplasia (30 mg/kg i.p. on GD-8) was 3 (5.9) and the Microtia/low set microtia (30 mg/kg i.p. on GD-8) was 2 (3.9). For the same compound, the Undescended testis (30 mg/kg i.p. on GD-8) was 0, the Maxilla hypoplasia (30 mg/kg i.p. on GD-8, * p < 0.05 vs control) was 2 (3.9)* and the Live fetus/litter (30 mg/kg i.p. on GD-8) was 7.286 (86.44). The Resorption/litter (30 mg/kg i.p. on GD-8) was 1.143 (13.56), the “Fetal weight Litter (g) (Mean ± SD)” value (30 mg/kg i.p. on GD-13) was 1.069 ± 0.082 g and the Fetuses/litter (30 mg/kg i.p. on GD-13) was 7.000 ± 1.155. For the same compound, the “Placental weight/Litter (g) (mean ± SD)” value (30 mg/kg i.p. on GD-13) was 0.103 ± 0.006 g, the “Placental weight, IUGR −2SD” value (30 mg/kg i.p. on GD-13) was 0 and the “Fetal weight, IUGR −2SD” value (30 mg/kg i.p. on GD-13) was 0.
